{
  "source": "patent US20050244897A1",
  "about": "“Endothelial cells as diagnostic instrument in cardiovascular diseases” (priority 2002, published 2005)",
  "key": {"[1]": {"tested_on": "circulating apoptotic ECs", "test": "Flow cytometry (FACS) of circulating apoptotic ECs in peripheral blood of patients with stable angina treated prospectively", "assay_type": "in vivo, human", "protocol": "(§1) In addition, 8 patients with stable angina were prospectively treated with atorvastatin (20 mg/day, four weeks).\nThe lysis of erythrocytes in 10 ml peripheral venous heparin blood was performed with the aid of a commercially available solution for lysis (Becton Dickinson, BD). The circulating ECs were then examined by means of 4-channel-FACS (Fluorescence Activated Cell Sorting)-analysis, using a suitably modified protocol according to the method of Mancuso et al. and Monestiroli et al. (Mancuso P., Burlini A., Pruneri G., Goldhirsch A., Martinelli G., Bertolini F. Blood. 2001; 97: 3658-3661; Monestiroli S., Mancuso P., Burlini A., Pruneri G., Dell'Agnola C., Gobbi A., Martinelli G., Bertolini F. Cancer Res. 2001; 61: 4341-4344) (FIG. 1). First, in the representation of the forward/sideward-scatter a regional window was defined, in order to exclude platelets and debris from the further analyses. Amongst the remaining cells, the number of the CD45^+-signals that were identified with a direct perCP-conjugated monoclonal antibody against human CD45 (BD) was quantified, in order to normalise each measured cellular population in view of the total number of the leukocytes in relation to the number of WBCs. In order to specifically detect mature ECs, only CD45^−-cells were analysed further by double staining with antibodies against the EC-specific epitope CD146 (MeI-CAM, MUC18, S-Endo-1; Shih I. M. J Pathol. 1999; 189: 4-11) (monoclonal mouse-antibody, directly FITC-conjugated; Chemicon) and against von Willebrandt-factor (vWF) (rabbit, Oncogene), followed by a PE-conjugated anti-rabbit secondary antibody. Alternatively, human KDR was detected with an anti-KDR-antibody of the mouse (Sigma), followed by a PE-conjugated anti-mouse secondary antibody in addition to vWF. CD45^−/CD146^+/vWF^+ or CD45^−/KDR^+/vWF^+-cells were defined as mature ECs. […]"}, "LDL-cholesterol": {"tested_on": "LDL-cholesterol", "test": "Serum lipid fractions (LDL-cholesterol) in patients with stable angina before and after treatment", "assay_type": "in vivo, human", "protocol": "as §1\nIn all patients serum was also collected at the time of examination for a determination of the concentrations of CRP and hsCRP (turbidimetric assay, Boehringer Mannheim and Ultrasensitive N Latex CRP Monotest, Behring, respectively) as well as serum lipid-fractions (Boehringer Mannheim).\nThus, it was prospectively examined whether a short-term treatment with atorvastatin (20 mg/day, four weeks) reduces the EC-apoptosis in patients with stable CAD."}},
  "data": [
    {"smiles": "CC(C)c1c(C(=O)Nc2ccccc2)c(-c2ccccc2)c(-c2ccc(F)cc2)n1CC[C@@H](O)C[C@@H](O)CC(=O)O", "note": "[atorvastatin]", "values": [
      {"measurement": "EC-apoptosis", "setting": "[1]; patients with CAD, four week treatment period", "result": "profoundly reduces"},
      {"measurement": "number of circulating apoptotic ECs", "setting": "[1]; patients with stable CAD (SA), n=8, 20 mg/day, four weeks, FIG. 3A", "result": "significantly reduced"},
      {"measurement": "proportion of apoptotic ECs of the total number of circulating ECs", "setting": "[1]; patients with stable CAD (SA), n=8, 20 mg/day, four weeks, FIG. 3B", "result": "significantly reduced"},
      {"measurement": "LDL-cholesterol (mg/dl) post", "setting": "LDL-cholesterol; n=8 patients with stable angina, after 20 mg/day for four weeks, pre value 155 ± 16, mean ± SEM", "result": "86 ± 13", "unit": "mg/dL"},
      {"measurement": "concentration of LDL-cholesterol", "setting": "LDL-cholesterol; patients with stable CAD, 20 mg/day, four weeks, p<0.02", "result": "significantly reduced"}
    ]}
  ]
}
